Data as given in US20240043384A1, “INHIBITORS OF PU.1 FOR THE TREATMENT OF DISEASE” (Board of Regents, The University of Texas System, priority 2021, published 2024).

Tested on: THP-1 CD14
Test: THP-1 CD14 Screening Assay
Type: cell-based
Conditions: Homo sapiens, THP-1, 72 h, THP-1 cells treated with PMA and compound (5-point 10-fold dilution), human CD14 ELISA on media
Procedure: THP-1 CD14 Screening Assay Protocol:
5×10^4 THP-1 cells were plated per well in a tissue culture-treated 96-well plate. At the time of plating, cells were treated with a final concentration of […] PMA and 0.04% DMSO vehicle, concominant with compounds in a 5-point 10-fold dilution per compound. Cells were treated with PMA and DMSO as a control for differentiation without compound treatment, and with only DMSO as a control for no differentiation and no compound treatment. 500 nM IACS-71432 was added as a control compound across all assay plates.
After incubation at 37° C./5% CO2 for 72 hr, media was collected from the cells and the screening assay was performed using the commercially-available human CD14 SimpleStep ELISA kit from Abcam, according to the following protocol: • 1) ELISA kits were taken out to equilibrate to rt. • 2) Following the protocol listed in the kit, standards were prepared as 1:1 dilutions from 2 ng/ml. • 3) Following the protocol listed in the kit, antibody cocktail was prepared (the volume is contingent on the number of wells required). • 4) 50 μl of standards were added to the appropriate wells, thoroughly mizing the standards before adding to each well. • 5) 25 μl of Sample Diluent (from kit) was added to all sample wells. • 6) Cell plates were centrifuged for 5 min at 300 rcf, with slow acceleration and slow deceleration. • 7) 25 μl of media from cell plates was transferred to assay plates containing standards. • 8) 50 μl of antibody cocktail was added to all of the wells, standards and samples. • 9) Assay plates were sealed tightly and incubated on the plate shaker at 400 rpm for 1 hr at rt. • 10) Wash buffer was prepared following the protocol listed in the kit. • 11) After the hour incubation, assay plates were washed 5 times using 200 μl wash buffer per well per wash. • 12) 100 μl of TMB substrate was added to each well in the dark and incubated on the shaker for 3-4.min, at which point color development was monitored to ensure a robust signal for detection but to avoid oversaturation of signal, for no longer than 10 min. • 13) The absorbance at 607 nm was read on a Perkin Elmer Envision plate reader. • 14) Data was processed using Microsoft Excel and GraphPad Prism.

| Structure (SMILES) | IC50 |
| --- | --- |
| Cc1nc2cc(-c3ccc(S(=O)(=O)NCc4ccncc4)cc3)ccc2o1 [Example 47, 4-(2-methyl-benzo[d]oxazol-5-yl)-N-(pyridin-4-ylmethyl)-benzenesulfonamide] | < 5 nM |
| O=S(=O)(NCc1ccncc1)c1ccc(-c2ccc3ocnc3c2)cc1 [Example 48, 4-(1,3-benzoxazol-5-yl)-N-[(pyridin-4-yl)methyl]benzene-1-sulfonamide] | < 5 nM |
| O=c1[nH]ccc2cc(-c3ccc(S(=O)(=O)NCc4ccncc4)cc3)ccc12 [Example 50, 4-(1-oxo-1,2-dihydro-isoquinolin-6-yl)-N-(pyridin-4-ylmethyl)-benzenesulfonamide] | 100 to 500 nM |
| O=S(=O)(NCc1ccncc1)c1ccc(-c2ccc3ccoc3c2)cc1 [Example 51, 4-(benzofuran-6-yl)-N-(pyridin-4-ylmethyl)-benzenesulfonamide] | < 5 nM |
| O=S(=O)(NCc1ccncc1)c1ccc(-c2ccc3cccnc3c2)cc1 [Example 52, N-(pyridin-4-ylmethyl)-4-(quinolin-7-yl)benzenesulfonamide] | < 5 nM |
| O=S(=O)(NCc1ccncc1)c1ccc(-c2ccc3c(c2)OCO3)cc1 [Example 53, 4-(benzo[d][1,3]dioxol-5-yl)-N-(pyridin-4-ylmethyl)-benzenesulfonamide] | < 5 nM |
| O=S(=O)(NCc1ccncc1)c1ccc(-c2ccc3ncnc(O)c3c2)cc1 [Example 54, 4-(4-hydroxyquinazolin-6-yl)-N-(pyridin-4-ylmethyl)-benzenesulfonamide] | 100 to 500 nM |
| O=S(=O)(NCc1ccncc1)c1ccc(-c2ccc3c(c2)OCCO3)cc1 [Example 55, 4-(2,3-dihydrobenzo[b]-[1,4]dioxin-6-yl)-N-(pyridin-4-ylmethyl)-benzenesulfonamide] | < 5 nM |
| O=C1NCCc2ccc(-c3ccc(S(=O)(=O)NCc4ccncc4)cc3)cc21 [Example 56, 4-(1-oxo-1,2,3,4-tetrahydroisoquinolin-7-yl)-N-(pyridin-4-ylmethyl)-benzenesulfonamide] | 5 to 100 nM |
| O=C1NCc2ccc(-c3ccc(S(=O)(=O)NCc4ccncc4)cc3)cc21 [Example 57, 4-(3-oxoisoindolin-5-yl)-N-(pyridin-4-ylmethyl)-benzenesulfonamide] | 5 to 100 nM |
| O=S(=O)(NCc1ccncc1)c1ccc(-c2ccc3cc[nH]c3c2)cc1 [Example 58, 4-(1H-indol-6-yl)-N-(pyridin-4-ylmethyl)-benzenesulfonamide] | < 5 nM |

Continued, values first:

| IC50 | Structure (SMILES) |
| --- | --- |
| < 5 nM | Cc1cc(-c2ccc(S(=O)(=O)NCc3ccncc3)cc2)ccn1 [Example 40, 4-(2-methylpyridin-4-yl)-N-(pyridin-4-ylmethyl)-benzenesulfonamide] |
| < 5 nM | Cc1ccnc(-c2ccc(S(=O)(=O)NCc3ccncc3)cc2)c1 [Example 41, 4-(4-methylpyridin-2-yl)-N-(pyridin-4-ylmethyl)-benzenesulfonamide] |
| < 5 nM | Cc1ccc(-c2ccc(S(=O)(=O)NCc3ccncc3)cc2)nc1 [Example 42, 4-(5-methylpyridin-2-yl)-N-(pyridin-4-ylmethyl)-benzenesulfonamide] |
| < 5 nM | O=S(=O)(NCc1ccncc1)c1ccc(-c2ncccc2Cl)cc1 [Example 43, 4-(3-chloropyridin-2-yl)-N-(pyridin-4-ylmethyl)-benzenesulfonamide] |
| < 5 nM | Cn1ncc2cc(-c3ccc(S(=O)(=O)NCc4ccncc4)cc3)ccc21 [Example 44, 4-(1-methyl-1H-indazol-5-yl)-N-(pyridin-4-ylmethyl)-benzenesulfonamide] |
| < 5 nM | O=S(=O)(NCc1ccncc1)c1ccc(-c2ccc3ncoc3c2)cc1 [Example 45, 4-(benzo[d]oxazol-6-yl)-N-(pyridin-4-ylmethyl)-benzenesulfonamide] |
| < 5 nM | O=S(=O)(NCc1ccncc1)c1ccc(-c2ccc3ncsc3c2)cc1 [Example 46, 4-(benzo[d]thiazol-6-yl)-N-(pyridin-4-ylmethyl)-benzenesulfonamide] |
